# From ChEMBL document CHEMBL1201861, “Genomics of Drug Sensitity in Cancer screening data, Wellcome Trust Sanger Institute”
# pIC50: −log10 of the molar value.
# Assays:
# Assay in all cases: cells
# SW1710 = assay type: functional, cell-based, Homo sapiens;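 also: growth inhibition of SW1710 cells, determined with a cell viability assay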
# Description: SANGER: Inhibition of human SW1710 cell growth in a cell viability assay.
# T47D = assay type: functional, cell-based, Homo sapiens;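 also: growth inhibition of human T47D cells, measured with a cell viability assay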
# Description: SANGER: Inhibition of human T47D cell growth in a cell viability assay.
# TCC-SUP = assay type: functional, cell-based, Homo sapiens;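 also: growth inhibition of TCC-SUP cells, read out with a cell viability assay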
# Description: SANGER: Inhibition of human TCCSUP cell growth in a cell viability assay.
# NCI-H596 = assay type: functional, cell-based, Homo sapiens;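 also: growth inhibition of NCI-H596 cells, read out with a cell viability assay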
# Description: SANGER: Inhibition of human NCI-H596 cell growth in a cell viability assay.
# SW780 = assay type: functional, cell-based, Homo sapiens;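 also: growth inhibition of the cells, read out with a cell viability assay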
# Description: SANGER: Inhibition of human SW780 cell growth in a cell viability assay.
# DOK = assay type: functional, cell-based, Homo sapiens;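 also: cell viability assay read-out, values reflect inhibition of cell growth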
# Description: SANGER: Inhibition of human DOK cell growth in a cell viability assay.
# NCI-H1793 = assay type: functional, cell-based, Homo sapiens;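 also: cell growth inhibition, read out by a cell viability assay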
# Description: SANGER: Inhibition of human NCI-H1793 cell growth in a cell viability assay.
# CaR-1 = assay type: functional, cell-based, Homo sapiens;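 also: growth inhibition of human CaR-1 cancer cells, read out with a cell viability assay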
# Description: SANGER: Inhibition of human CaR-1 cell growth in a cell viability assay.
# NCI-H2122 = assay type: functional, cell-based, Homo sapiens;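 also: growth inhibition of the cells, read out with a cell viability assay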
# Description: SANGER: Inhibition of human NCI-H2122 cell growth in a cell viability assay.
# 8305C = assay type: functional, cell-based, Homo sapiens
# Description: SANGER: Inhibition of human 8305C cell growth in a cell viability assay.
# HTC-C3 = assay type: functional, cell-based, Homo sapiens;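 also: inhibition of cell growth, read out with a cell viability assay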
# Description: SANGER: Inhibition of human HTC-C3 cell growth in a cell viability assay.
# A2780 = assay type: functional, cell-based, Homo sapiens;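 also: growth inhibition of A2780 cells, read out with a cell viability assay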
# Description: SANGER: Inhibition of human A2780 cell growth in a cell viability assay.
# GMS-10 = assay type: functional, cell-based, Homo sapiens;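 also: growth inhibition of GMS-10 cells, read out as cell viability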
# Description: SANGER: Inhibition of human GMS-10 cell growth in a cell viability assay.
# UACC-893 = assay type: functional, cell-based, Homo sapiens
# Description: SANGER: Inhibition of human UACC-893 cell growth in a cell viability assay.
# BEN = assay type: functional, cell-based, Homo sapiens; conditions: Homo sapiens, BEN;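 also: growth inhibition of the BEN cell line, read out with a cell viability assay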
# Description: SANGER: Inhibition of human BEN cell growth in a cell viability assay.
# NCI-H2030 = assay type: functional, cell-based, Homo sapiens;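 also: growth inhibition of human NCI-H2030 cells, read out by a cell viability assay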
# Description: SANGER: Inhibition of human NCI-H2030 cell growth in a cell viability assay.
# NCI-H1651 = assay type: functional, cell-based, Homo sapiens;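 also: Read-out is a cell viability assay, with IC50 expressing inhibition of NCI-H1651 cell growth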
# Description: SANGER: Inhibition of human NCI-H1651 cell growth in a cell viability assay.
# COLO-679 = assay type: functional, cell-based, Homo sapiens
# Description: SANGER: Inhibition of human COLO-679 cell growth in a cell viability assay.
# HOP-92 = assay type: functional, cell-based, Homo sapiens;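 also: cell viability readout, with IC50 reflecting inhibition of HOP-92 cell growth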
# Description: SANGER: Inhibition of human HOP-92 cell growth in a cell viability assay.
# NCI-H650 = assay type: functional, cell-based, Homo sapiens;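 also: growth inhibition of NCI-H650 cells, read out by a viability assay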
# Description: SANGER: Inhibition of human NCI-H650 cell growth in a cell viability assay.
# NCI-H358 = assay type: functional, cell-based, Homo sapiens;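 also: growth inhibition of NCI-H358 human cells, read out with a cell viability assay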
# Description: SANGER: Inhibition of human NCI-H358 cell growth in a cell viability assay.
# NCI-H727 = assay type: functional, cell-based, Homo sapiens;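 also: growth inhibition of human NCI-H727 cells, read out with a cell viability assay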
# Description: SANGER: Inhibition of human NCI-H727 cell growth in a cell viability assay.
# A2058 = assay type: functional, cell-based, Homo sapiens;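 also: reduction of A2058 cell growth, read out with a viability assay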
# Description: SANGER: Inhibition of human A2058 cell growth in a cell viability assay.
# NCI-H292 = assay type: functional, cell-based, Homo sapiens;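 also: growth inhibition of NCI-H292 cells, read out with a cell viability assay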
# Description: SANGER: Inhibition of human NCI-H292 cell growth in a cell viability assay.
# COR-L105 = assay type: functional, cell-based, Homo sapiens;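 also: cell growth inhibition determined with a viability assay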
# Description: SANGER: Inhibition of human COR-L105 cell growth in a cell viability assay.
# PC-14 = assay type: functional, cell-based, Homo sapiens;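 also: cell viability assay measuring inhibition of PC-14 cell growth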
# Description: SANGER: Inhibition of human PC-14 cell growth in a cell viability assay.
# AGS = assay type: functional, cell-based, Homo sapiens;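 also: growth inhibition of AGS cells, determined with a cell viability assay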
# Description: SANGER: Inhibition of human AGS cell growth in a cell viability assay.
# OE33 = assay type: functional, cell-based, Homo sapiens;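 also: growth inhibition of human OE33 cells, measured by a cell viability assay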
# Description: SANGER: Inhibition of human OE33 cell growth in a cell viability assay.
# CHL-1 = assay type: functional, cell-based, Homo sapiens;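 also: cell growth inhibition, read out with a cell viability assay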
# Description: SANGER: Inhibition of human CHL-1 cell growth in a cell viability assay.
# RPMI-7951 = assay type: functional, cell-based, Homo sapiens
# Description: SANGER: Inhibition of human RPMI-7951 cell growth in a cell viability assay.
# HuO-3N1 = assay type: functional, cell-based, Homo sapiens;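 also: cell viability readout used to measure how strongly compounds suppress proliferation of human HuO-3N1 cells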
# Description: SANGER: Inhibition of human HuO-3N1 cell growth in a cell viability assay.
# CAL-27 = assay type: functional, cell-based, Homo sapiens;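 also: Viability-based readout, IC50 reflecting inhibition of CAL-27 cell growth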
# Description: SANGER: Inhibition of human CAL-27 cell growth in a cell viability assay.
# A-427 = assay type: functional, cell-based, Homo sapiens;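 also: growth inhibition of human A-427 cells, read out by a cell viability assay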
# Description: SANGER: Inhibition of human A427 cell growth in a cell viability assay.
# Hs-578T = assay type: functional, cell-based, Homo sapiens
# Description: SANGER: Inhibition of human Hs-578-T cell growth in a cell viability assay.
# SK-HEP1 = assay type: functional, cell-based, Homo sapiens, SK-HEP-1;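 also: cell viability readout used to quantify reduction in proliferation of human SK-HEP-1 cells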
# Description: SANGER: Inhibition of human SK-HEP-1 cell growth in a cell viability assay.
# NCI-H441 = assay type: functional, cell-based, Homo sapiens;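 also: growth inhibition of NCI-H441 cells, read out with a cell viability assay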
# Description: SANGER: Inhibition of human NCI-H441 cell growth in a cell viability assay.
# SCC-4 = assay type: functional, cell-based, Homo sapiens;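 also: growth inhibition of human SCC-4 cells, read out as cell viability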
# Description: SANGER: Inhibition of human SCC-4 cell growth in a cell viability assay.
# YKG-1 = assay type: functional, cell-based, Homo sapiens;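 also: cell growth inhibition, read out with a viability assay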
# Description: SANGER: Inhibition of human YKG-1 cell growth in a cell viability assay.
# Kasumi 1 = assay type: functional, cell-based, Homo sapiens;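 also: growth inhibition of human Kasumi-1 cells, read out by a cell viability assay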
# Description: SANGER: Inhibition of human KASUMI-1 cell growth in a cell viability assay.
# HCT-15 = assay type: functional, cell-based, Homo sapiens;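 also: cell viability readout, IC50 reflecting suppression of HCT-15 cell growth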
# Description: SANGER: Inhibition of human HCT-15 cell growth in a cell viability assay.
# U-118-MG = assay type: functional, cell-based, Homo sapiens
# Description: SANGER: Inhibition of human U-118-MG cell growth in a cell viability assay.
compound,measurement,setting,value
CO[C@H]1C[C@@H]2CC[C@@H](C)[C@@](O)(O2)C(=O)C(=O)N2CCCC[C@H]2C(=O)O[C@H]([C@H](C)C[C@@H]2CC[C@@H](OC(=O)C(C)(CO)CO)[C@H](OC)C2)CC(=O)[C@H](C)/C=C(\C)[C@@H](O)[C@@H](OC)C(=O)[C@H](C)C[C@H](C)/C=C/C=C/C=C/1C [TEMSIROLIMUS],pIC50,"SW1710; Homo sapiens, SW1710",6.72
same,pIC50,"T47D; Homo sapiens, T47D",6.97
same,pIC50,"TCC-SUP; Homo sapiens, TCC-SUP",7.08
same,pIC50,"NCI-H596; Homo sapiens, NCI-H596",< 6.70
same,pIC50,"SW780; Homo sapiens, SW780",8.32
same,pIC50,"DOK; Homo sapiens, DOK",7.39
same,pIC50,"NCI-H1793; Homo sapiens, NCI-H1793",7.34
same,pIC50,"CaR-1; Homo sapiens, CaR-1",< 6.70
same,pIC50,"NCI-H2122; Homo sapiens, NCI-H2122",< 6.70
same,pIC50,"8305C; Homo sapiens, 8305C",< 6.70
same,pIC50,"HTC-C3; Homo sapiens, HTC-C3",7.17
same,pIC50,"A2780; Homo sapiens, A2780",8.23
same,pIC50,"GMS-10; Homo sapiens, GMS-10",< 6.70
same,pIC50,"UACC-893; Homo sapiens, UACC-893",< 6.70
same,pIC50,BEN,7.50
same,pIC50,"NCI-H2030; Homo sapiens, NCI-H2030",7.01
same,pIC50,"NCI-H1651; Homo sapiens, NCI-H1651",< 6.70
same,pIC50,"COLO-679; Homo sapiens, COLO-679",< 6.70
same,pIC50,"HOP-92; Homo sapiens, HOP-92",< 6.70
same,pIC50,"NCI-H650; Homo sapiens, NCI-H650",< 6.70
same,pIC50,"NCI-H358; Homo sapiens, NCI-H358",6.88
same,pIC50,"NCI-H727; Homo sapiens, NCI-H727",< 6.70
same,pIC50,"A2058; Homo sapiens, A2058",7.58
same,pIC50,"NCI-H292; Homo sapiens, NCI-H292",8.01
same,pIC50,"COR-L105; Homo sapiens, COR-L105",7.26
same,pIC50,"PC-14; Homo sapiens, PC-14",< 6.70
same,pIC50,"AGS; Homo sapiens, AGS",7.85
same,pIC50,"OE33; Homo sapiens, OE33",< 6.70
same,pIC50,"CHL-1; Homo sapiens, CHL-1",8.23
same,pIC50,"RPMI-7951; Homo sapiens, RPMI-7951",7.41
same,pIC50,"HuO-3N1; Homo sapiens, HuO-3N1",7.64
same,pIC50,"CAL-27; Homo sapiens, CAL-27",< 6.70
same,pIC50,"A-427; Homo sapiens, A-427",6.74
same,pIC50,"Hs-578T; Homo sapiens, Hs-578T",7.18
same,pIC50,"SK-HEP1; Homo sapiens, SK-HEP1",< 6.70
same,pIC50,"NCI-H441; Homo sapiens, NCI-H441",< 6.70
same,pIC50,"SCC-4; Homo sapiens, SCC-4",< 6.70
same,pIC50,"YKG-1; Homo sapiens, YKG-1",< 6.70
same,pIC50,"Kasumi 1; Homo sapiens, Kasumi 1",7.25
same,pIC50,"HCT-15; Homo sapiens, HCT-15",< 6.70
same,pIC50,"U-118-MG; Homo sapiens, U-118-MG",7.78
Nc1cccc2c1CN(C1CCC(=O)NC1=O)C2=O (centres undefined) [LENALIDOMIDE],pIC50,"SW1710; Homo sapiens, SW1710",< 5.30
same,pIC50,"T47D; Homo sapiens, T47D",< 5.30
same,pIC50,"TCC-SUP; Homo sapiens, TCC-SUP",< 5.30
same,pIC50,"NCI-H596; Homo sapiens, NCI-H596",< 5.30
same,pIC50,"SW780; Homo sapiens, SW780",< 5.30
same,pIC50,"DOK; Homo sapiens, DOK",< 5.30
same,pIC50,"NCI-H1793; Homo sapiens, NCI-H1793",< 5.30
same,pIC50,"CaR-1; Homo sapiens, CaR-1",< 5.30
same,pIC50,"NCI-H2122; Homo sapiens, NCI-H2122",< 5.30
same,pIC50,"8305C; Homo sapiens, 8305C",< 5.30
same,pIC50,"HTC-C3; Homo sapiens, HTC-C3",< 5.30
same,pIC50,"A2780; Homo sapiens, A2780",< 5.30
same,pIC50,"GMS-10; Homo sapiens, GMS-10",< 5.30
same,pIC50,"UACC-893; Homo sapiens, UACC-893",< 5.30
same,pIC50,BEN,< 5.30
same,pIC50,"NCI-H2030; Homo sapiens, NCI-H2030",< 5.30
same,pIC50,"NCI-H1651; Homo sapiens, NCI-H1651",< 5.30
same,pIC50,"COLO-679; Homo sapiens, COLO-679",< 5.30
same,pIC50,"HOP-92; Homo sapiens, HOP-92",< 5.30
same,pIC50,"NCI-H650; Homo sapiens, NCI-H650",< 5.30
same,pIC50,"NCI-H358; Homo sapiens, NCI-H358",< 5.30
same,pIC50,"NCI-H727; Homo sapiens, NCI-H727",< 5.30
same,pIC50,"A2058; Homo sapiens, A2058",< 5.30
same,pIC50,"NCI-H292; Homo sapiens, NCI-H292",< 5.30
same,pIC50,"COR-L105; Homo sapiens, COR-L105",< 5.30
same,pIC50,"PC-14; Homo sapiens, PC-14",< 5.30
same,pIC50,"AGS; Homo sapiens, AGS",< 5.30
same,pIC50,"OE33; Homo sapiens, OE33",< 5.30
same,pIC50,"CHL-1; Homo sapiens, CHL-1",< 5.30
same,pIC50,"RPMI-7951; Homo sapiens, RPMI-7951",< 5.30
same,pIC50,"HuO-3N1; Homo sapiens, HuO-3N1",< 5.30
same,pIC50,"CAL-27; Homo sapiens, CAL-27",< 5.30
same,pIC50,"A-427; Homo sapiens, A-427",< 5.30
same,pIC50,"Hs-578T; Homo sapiens, Hs-578T",< 5.30
same,pIC50,"SK-HEP1; Homo sapiens, SK-HEP1",< 5.30
same,pIC50,"NCI-H441; Homo sapiens, NCI-H441",< 5.30
same,pIC50,"SCC-4; Homo sapiens, SCC-4",< 5.30
same,pIC50,"YKG-1; Homo sapiens, YKG-1",< 5.30
same,pIC50,"Kasumi 1; Homo sapiens, Kasumi 1",< 5.30
same,pIC50,"HCT-15; Homo sapiens, HCT-15",< 5.30
same,pIC50,"U-118-MG; Homo sapiens, U-118-MG",< 5.30
CISPLATIN,pIC50,SW1710; sw1710,4.35
same,pIC50,T47D; t47d,3.89
same,pIC50,TCC-SUP; tcc-sup,5.07
same,pIC50,NCI-H596; nci-h596,3.52
same,pIC50,SW780; sw780,4.85
same,pIC50,DOK; dok,4.90
same,pIC50,NCI-H1793; nci-h1793,4.72
same,pIC50,CaR-1; car-1,3.12
same,pIC50,NCI-H2122; nci-h2122,4.82
same,pIC50,8305C; 8305c,4.21
same,pIC50,HTC-C3; htc-c3,5.35
same,pIC50,A2780; a2780,5.19
same,pIC50,GMS-10; gms-10,4.07
same,pIC50,UACC-893; uacc-893,4.58
same,pIC50,NCI-H2030; nci-h2030,4.93
same,pIC50,NCI-H1651; nci-h1651,5.15
same,pIC50,COLO-679; colo-679,3.12
same,pIC50,HOP-92; hop-92,5.45
same,pIC50,NCI-H650; nci-h650,4.52
same,pIC50,NCI-H358; nci-h358,3.71
same,pIC50,NCI-H727; nci-h727,3.16
same,pIC50,A2058; a2058,4.76
same,pIC50,NCI-H292; nci-h292,3.44
same,pIC50,COR-L105; cor-l105,4.64
same,pIC50,PC-14; pc-14,5.24
same,pIC50,AGS; ags,4.61
same,pIC50,OE33; oe33,4.65
same,pIC50,CHL-1; chl-1,4.00
same,pIC50,RPMI-7951; rpmi-7951,5.39
same,pIC50,HuO-3N1; huo-3n1,5.05
same,pIC50,CAL-27; cal-27,5.17
same,pIC50,A-427; a-427,3.46
same,pIC50,Hs-578T; hs-578-t,4.95
same,pIC50,SK-HEP1; sk-hep-1,4.54
same,pIC50,NCI-H441; nci-h441,3.70
same,pIC50,SCC-4; scc-4,4.51
same,pIC50,YKG-1; ykg-1,4.99
same,pIC50,Kasumi 1; kasumi 1,4.21
same,pIC50,HCT-15; hct-15,3.57
same,pIC50,U-118-MG; u-118-mg,4.77
CN(C)C(=N)NC(=N)N [METFORMIN],pIC50,"SW1710; Homo sapiens, SW1710",< 1.70
same,pIC50,"T47D; Homo sapiens, T47D",1.70
same,pIC50,"TCC-SUP; Homo sapiens, TCC-SUP",2.40
same,pIC50,"SW780; Homo sapiens, SW780",1.91
same,pIC50,"DOK; Homo sapiens, DOK",2.37
same,pIC50,"NCI-H1793; Homo sapiens, NCI-H1793",1.73
same,pIC50,"CaR-1; Homo sapiens, CaR-1",< 1.70
same,pIC50,"NCI-H2122; Homo sapiens, NCI-H2122",< 1.70
same,pIC50,"HTC-C3; Homo sapiens, HTC-C3",< 1.70
same,pIC50,"A2780; Homo sapiens, A2780",2.31
same,pIC50,"GMS-10; Homo sapiens, GMS-10",< 1.70
same,pIC50,"UACC-893; Homo sapiens, UACC-893",2.00
same,pIC50,BEN,1.81
same,pIC50,"NCI-H1651; Homo sapiens, NCI-H1651",1.73
same,pIC50,"COLO-679; Homo sapiens, COLO-679",< 1.70
same,pIC50,"NCI-H727; Homo sapiens, NCI-H727",< 1.70
same,pIC50,"A2058; Homo sapiens, A2058",< 1.70
same,pIC50,"NCI-H292; Homo sapiens, NCI-H292",2.23
same,pIC50,"COR-L105; Homo sapiens, COR-L105",< 1.70
same,pIC50,"PC-14; Homo sapiens, PC-14",1.75
same,pIC50,"AGS; Homo sapiens, AGS",1.80
same,pIC50,"CHL-1; Homo sapiens, CHL-1",1.71
same,pIC50,"RPMI-7951; Homo sapiens, RPMI-7951",2.04
same,pIC50,"HuO-3N1; Homo sapiens, HuO-3N1",2.11
same,pIC50,"CAL-27; Homo sapiens, CAL-27",< 1.70
same,pIC50,"A-427; Homo sapiens, A-427",2.14
same,pIC50,"Hs-578T; Homo sapiens, Hs-578T",< 1.70
same,pIC50,"SK-HEP1; Homo sapiens, SK-HEP1",< 1.70
same,pIC50,"NCI-H441; Homo sapiens, NCI-H441",< 1.70
same,pIC50,"SCC-4; Homo sapiens, SCC-4",< 1.70
same,pIC50,"Kasumi 1; Homo sapiens, Kasumi 1",3.42
same,pIC50,"HCT-15; Homo sapiens, HCT-15",2.05
